# Reference: US8030498B2, “Benzoylpyrazole compounds and herbicides containing them” (Ishihara Sangyo Kaisha, Ltd., priority 2005, dated 2011)
# What was measured:
# prickly sida = experiment: Test Example 2: soil application on the day after sowing, growth inhibition rate, prickly sida; type: in vivo, Sida spinosa L.; settings: 250 g/ha active ingredient, observed on 19th to 24th day; for inhibition at 250 g/ha: Sida spinosa
# Source text: (§1) Upland field soil was put into a 1/170,000 hectare pot, and seeds of various plants (barnyardgrass, crabgrass, greenfoxtail, redroot pigweed, prickly sida, velvetleaf, rice, wheat, corn and soybean) were sown. On the day after sowing, wettable powders or emulsifiable concentrates of the compounds of the present invention prepared in accordance with a conventional preparation method, were weighed so that the active ingredients became the prescribed amounts, and diluted with water in an amount corresponding to 500 liter per 1 hectare, followed by soil application with a small sprayer. On the 19th to 24th day after the application, the state of growth of the respective plants was visually observed, and the herbicidal effect was evaluated in accordance with a growth inhibition rate (%) of from 0 (equivalent to the non-treated area) to 100% (complete kill).
# redroot pigweed = experiment: Test Example 2: soil application on the day after sowing, growth inhibition rate, redroot pigweed; type: in vivo, Amaranthus retroflexus L.; settings: 250 g/ha active ingredient, observed on 19th to 24th day; for inhibition at 250 g/ha: Amaranthus retroflexus
# Source text: as §1
# [1] = system: greenfoxtail (Setaria viridis L.); experiment: Test Example 1: foliar treatment, growth inhibition rate, greenfoxtail; type: in vivo; settings: 31 g/ha active ingredient, visually observed 17th to 23rd day after application; for pest or weed control at 31 g/ha: Setaria viridis
# Source text: (§2) Upland field soil was put into a 1/170,000 hectare pot, and seeds of various plants were sown. When the respective plants reached predetermined leaf stage ((1) barnyardgrass (Echinochloa crus-galli L.); 0.8 to 2.5 leaf stage, (2) crabgrass (Digitaria sanguinalis L.): 0.5 to 3.0 leaf stage, (3) greenfoxtail (Setaria viridis L.): 1.0 to 3.0 leaf stage, (4) redroot pigweed (Amaranthus retroflexus L.): cotyledon stage to 2.0 leaf stage, (5) prickly sida (Sida spinosa L.): cotyledon stage to 1.1 leaf stage, (6) velvetleaf (Abutilon theophrasti MEDIC.): cotyledon stage to 1.5 leaf stage, (7) rice (Oryza sativa L.): 1.0 to 2.5 leaf stage, (8) wheat (Triticum spp.): 1.7 to 3.4 leaf stage, (9) corn (Zea mays L.): 2.0 to 3.5 leaf stage, and (10) soybean (Glycine max Merr.): primary leaf stage to 0.3 leaf stage), wettable powders or emulsifiable concentrates of the compounds of the present invention prepared in accordance with a conventional preparation method, were weighed so that the active ingredients became the prescribed amounts, and diluted with water in an amount corresponding to 500 liter per 1 hectare. 0.1 vol % of an agricultural spreader was further added to the respective diluted liquids, followed by foliar treatment with a small sprayer.
# (§3) On the 17th to 23rd day after application, the state of growth of the respective plants was visually observed, and the herbicidal effect was evaluated in accordance with a growth inhibition rate (%) of 0 (equivalent to the non-treated area) to 100% (complete kill).
# wheat (Triticum spp.) = experiment: Test Example 1: foliar treatment, growth inhibition rate, wheat; type: in vivo; settings: 31 g/ha active ingredient, visually observed 17th to 23rd day after application; for pest or weed control at 31 g/ha: Triticum
# Source text: as §2, §3
# rice = experiment: Test Example 2: soil application on the day after sowing, growth inhibition rate, rice; type: in vivo, Oryza sativa L.; settings: 250 g/ha active ingredient, observed on 19th to 24th day; for inhibition at 250 g/ha: Oryza sativa
# Source text: as §1
# greenfoxtail = experiment: Test Example 2: soil application on the day after sowing, growth inhibition rate, greenfoxtail; type: in vivo, Setaria viridis L.; settings: 250 g/ha active ingredient, observed on 19th to 24th day; for inhibition at 250 g/ha: Setaria viridis
# Source text: as §1
# corn (Zea mays L.) = experiment: Test Example 1: foliar treatment, growth inhibition rate, corn; type: in vivo; settings: 31 g/ha active ingredient, visually observed 17th to 23rd day after application; for pest or weed control at 31 g/ha: Zea mays
# Source text: as §2, §3
# wheat = experiment: Test Example 2: soil application on the day after sowing, growth inhibition rate, wheat; type: in vivo, Triticum spp.; settings: 250 g/ha active ingredient, observed on 19th to 24th day; for inhibition at 250 g/ha: Triticum aestivum
# Source text: as §1
# crabgrass = experiment: Test Example 2: soil application on the day after sowing, growth inhibition rate, crabgrass; type: in vivo, Digitaria sanguinalis L.; settings: 250 g/ha active ingredient, observed on 19th to 24th day; for inhibition at 250 g/ha: Digitaria sanguinalis
# Source text: as §1
# [2] = system: prickly sida (Sida spinosa L.); experiment: Test Example 1: foliar treatment, growth inhibition rate, prickly sida; type: in vivo; settings: 31 g/ha active ingredient, visually observed 17th to 23rd day after application
# Source text: as §2, §3
# corn = experiment: Test Example 2: soil application on the day after sowing, growth inhibition rate, corn; type: in vivo, Zea mays L.; settings: 250 g/ha active ingredient, observed on 19th to 24th day; for inhibition at 250 g/ha: Zea mays
# Source text: as §1
# barnyardgrass = experiment: Test Example 2: soil application on the day after sowing, growth inhibition rate, barnyardgrass; type: in vivo, Echinochloa crus-galli L.; settings: 250 g/ha active ingredient, observed on 19th to 24th day; for inhibition at 250 g/ha: Echinochloa crus-galli
# Source text: as §1
# velvetleaf = experiment: Test Example 2: soil application on the day after sowing, growth inhibition rate, velvetleaf; type: in vivo, Abutilon theophrasti MEDIC.; settings: 250 g/ha active ingredient, observed on 19th to 24th day; for inhibition at 250 g/ha: Abutilon theophrasti
# Source text: as §1
# [3] = system: barnyardgrass (Echinochloa crus-galli L.); experiment: Test Example 1: foliar treatment, growth inhibition rate, barnyardgrass; type: in vivo; settings: 31 g/ha active ingredient, visually observed 17th to 23rd day after application; for pest or weed control at 31 g/ha: Echinochloa crus-galli
# Source text: as §2, §3
# [4] = system: soybean (Glycine max Merr.); experiment: Test Example 1: foliar treatment, growth inhibition rate, soybean; type: in vivo; settings: 31 g/ha active ingredient, visually observed 17th to 23rd day after application
# Source text: as §2, §3
# [5] = system: velvetleaf (Abutilon theophrasti MEDIC.); experiment: Test Example 1: foliar treatment, growth inhibition rate, velvetleaf; type: in vivo; settings: 31 g/ha active ingredient, visually observed 17th to 23rd day after application; for pest or weed control at 31 g/ha: Abutilon theophrasti
# Source text: as §2, §3
# [6] = system: crabgrass (Digitaria sanguinalis L.); experiment: Test Example 1: foliar treatment, growth inhibition rate, crabgrass; type: in vivo; settings: 31 g/ha active ingredient, visually observed 17th to 23rd day after application; for pest or weed control at 31 g/ha: Digitaria sanguinalis
# Source text: as §2, §3
# rice (Oryza sativa L.) = experiment: Test Example 1: foliar treatment, growth inhibition rate, rice; type: in vivo; settings: 31 g/ha active ingredient, visually observed 17th to 23rd day after application; for pest or weed control at 31 g/ha: Oryza sativa
# Source text: as §2, §3
# [7] = system: redroot pigweed (Amaranthus retroflexus L.); experiment: Test Example 1: foliar treatment, growth inhibition rate, redroot pigweed; type: in vivo; settings: 31 g/ha active ingredient, visually observed 17th to 23rd day after application
# Source text: as §2, §3
# soybean = experiment: Test Example 2: soil application on the day after sowing, growth inhibition rate, soybean; type: in vivo, Glycine max Merr.; settings: 250 g/ha active ingredient, observed on 19th to 24th day
# Source text: as §1
SMILES,Growth inhibition rate (%) Prickly sida [2],Growth inhibition rate (%) Soybean [4],Growth inhibition rate (%) Prickly sida (prickly sida),Growth inhibition rate (%) redroot pigweed [7],Growth inhibition rate (%) redroot pigweed (redroot pigweed),Growth inhibition rate (%) Greenfoxtail [1],Growth inhibition rate (%) Wheat (wheat (Triticum spp.)),Growth inhibition rate (%) Rice (rice),Growth inhibition rate (%) Greenfoxtail (greenfoxtail),Growth inhibition rate (%) Corn (corn (Zea mays L.)),Growth inhibition rate (%) Crabgrass (crabgrass),Growth inhibition rate (%) Corn (corn),Growth inhibition rate (%) Barnyardgrass (barnyardgrass),Growth inhibition rate (%) Velvetleaf (velvetleaf),Growth inhibition rate (%) Barnyardgrass [3],Growth inhibition rate (%) Velvetleaf [5],Growth inhibition rate (%) Crabgrass [6],Growth inhibition rate (%) Rice (rice (Oryza sativa L.)),Growth inhibition rate (%) Soybean (soybean),also measured
"CCSC(=O)Oc1c(C(=O)c2ccc(S(C)(=O)=O)c(OCCOC)c2C)cnn1CC [Compound No. 16, 5-(ethylthio)carbonyloxy-1-ethylpyrazol-4-yl 3-(2-methoxyethoxy)-2-methyl-4-(methylsulfonyl)phenyl ketone]",40%,95%,–,–,–,–,–,–,–,–,–,–,–,–,–,–,–,–,–,inhibition at 250 g/ha (prickly sida): 10%; inhibition at 250 g/ha (redroot pigweed): 100%; pest or weed control at 31 g/ha [1]: 100%; pest or weed control at 31 g/ha (wheat (Triticum spp.)): 0%; inhibition at 250 g/ha (rice): 98%; inhibition at 250 g/ha (greenfoxtail): 98%; pest or weed control at 31 g/ha (corn (Zea mays L.)): 0%; inhibition at 250 g/ha (wheat): 0%; inhibition at 250 g/ha (crabgrass): 100%; inhibition at 250 g/ha (corn): 0%; inhibition at 250 g/ha (barnyardgrass): 100%; inhibition at 250 g/ha (velvetleaf): 0%; pest or weed control at 31 g/ha [3]: 100%; pest or weed control at 31 g/ha [5]: 100%; pest or weed control at 31 g/ha [6]: 100%; pest or weed control at 31 g/ha (rice (Oryza sativa L.)): 90%
CCSC(=O)Oc1c(C(=O)c2ccc(S(C)(=O)=O)c(C(=O)SC)c2Cl)cnn1C [compound 31],70%,50%,70%,70%,60%,80%,0%,60%,70%,60%,65%,0%,60%,60%,100%,60%,30%,60%,–,Growth inhibition rate (%) Wheat (wheat): 0%
"CCSC(=O)Oc1c(C(=O)c2ccc(S(C)(=O)=O)c(C(=O)OC)c2C)cnn1CC [Compound No. 2, 1-ethyl-5-(ethylthio)carbonyloxypyrazol-4-yl 3-(methoxycarbonyl)-2-methyl-4-(methylsulfonyl)phenyl ketone]",95%,–,–,95%,–,–,–,–,–,–,–,–,–,–,–,–,–,–,–,inhibition at 250 g/ha (prickly sida): 95%; inhibition at 250 g/ha (redroot pigweed): 100%; pest or weed control at 31 g/ha [1]: 100%; pest or weed control at 31 g/ha (wheat (Triticum spp.)): 30%; inhibition at 250 g/ha (rice): 100%; inhibition at 250 g/ha (greenfoxtail): 98%; pest or weed control at 31 g/ha (corn (Zea mays L.)): 10%; inhibition at 250 g/ha (wheat): 40%; inhibition at 250 g/ha (crabgrass): 100%; inhibition at 250 g/ha (corn): 0%; inhibition at 250 g/ha (barnyardgrass): 100%; inhibition at 250 g/ha (velvetleaf): 60%; pest or weed control at 31 g/ha [3]: 95%; pest or weed control at 31 g/ha [5]: 95%; pest or weed control at 31 g/ha [6]: 90%; pest or weed control at 31 g/ha (rice (Oryza sativa L.)): 95%
CCSC(=O)Oc1c(C(=O)c2ccc(S(C)(=O)=O)c(OCC3CCCCO3)c2C)cnn1C (centres unmarked) [compound 215],50%,95%,40%,95%,60%,70%,0%,90%,70%,30%,95%,0%,90%,0%,100%,50%,60%,70%,–,Growth inhibition rate (%) Wheat (wheat): 0%
CCn1ncc(C(=O)c2ccc(S(C)(=O)=O)c(OCCOC)c2C)c1OC(=O)SC [compound 234],50%,100%,20%,100%,100%,100%,0%,100%,100%,0%,100%,0%,100%,70%,100%,100%,100%,90%,0%,–
CCSC(=O)Oc1c(C(=O)c2ccc(S(C)(=O)=O)c(OC(C)COC)c2C)cnn1C (centres unmarked) [compound 236],40%,95%,30%,90%,100%,40%,0%,70%,10%,0%,95%,0%,98%,0%,60%,70%,50%,80%,0%,–
CCCSC(=O)Oc1c(C(=O)c2ccc(S(C)(=O)=O)c(OCCOC)c2C)cnn1CC [compound 235],50%,100%,98%,100%,100%,100%,40%,100%,100%,30%,100%,0%,100%,20%,100%,100%,100%,90%,0%,–
